Assay results taken from ChEMBL document CHEMBL1152069, “Synthesis and biological properties of carboranylaziridines bearing cascade polyols” (Bioorg Med Chem Lett, 1996).

Key:
[1] = Water solubility at 37 degree C.; assay type: ADME; conditions: buffer
[2] = tested on: B16; assay: Compound was tested for cytotoxic activity against […] melanoma cells; assay type: functional, cell-based, Mus musculus
[3] = Compound was tested for growth Inhibition against human TIG-1-20 fibroblast cells; assay type: functional, cell-based
[4] = tested on: B16; assay: Compound was tested for growth Inhibition against B16 melanoma cells; assay type: functional, cell-based, Mus musculus

| SMILES | S [1] | IC50 [2] | IC50 [3] | IC50 [4] |
| --- | --- | --- | --- | --- |
| CC1CN1CC(O)CC1CC1COC(CO)CO (centres undefined) | 0.0081 M,mol dme-3 | 0.000029 M,mol dme-3 | 0.000041 M,mol dme-3 |  |
| CC1CN1CC(O)CC1CC1COC(COC(CO)CO)COC(CO)CO (centres undefined) | > 0.01 M,mol dme-3 | 0.00005 M,mol dme-3 | 0.000068 M,mol dme-3 |  |
| CC1CN1CC(O)CC1CC1 (centres undefined) | < 0.001 M,mol dme-3 |  | 0.000018 M,mol dme-3 | 5.4e-6 M,mol dme-3 |
